Reference: patent US9597312B2, “Treatment of cognitive disorders associated with abnormal dendritic spines using PKC activators” (Cognitive Research Enterprises, Inc., priority 2010, dated 2017)

Experiments:
[1] = test system: squamous cell carcinoma and melanoma; settings: used topically; cited from earlier work
[2] = test system: NCI 60 cell line screen; settings: cited from earlier work
[3] = target: T1, PKCε (Homo sapiens, UniProt Q02156); settings: cited from earlier work
T1 sequence (Q02156 1-737): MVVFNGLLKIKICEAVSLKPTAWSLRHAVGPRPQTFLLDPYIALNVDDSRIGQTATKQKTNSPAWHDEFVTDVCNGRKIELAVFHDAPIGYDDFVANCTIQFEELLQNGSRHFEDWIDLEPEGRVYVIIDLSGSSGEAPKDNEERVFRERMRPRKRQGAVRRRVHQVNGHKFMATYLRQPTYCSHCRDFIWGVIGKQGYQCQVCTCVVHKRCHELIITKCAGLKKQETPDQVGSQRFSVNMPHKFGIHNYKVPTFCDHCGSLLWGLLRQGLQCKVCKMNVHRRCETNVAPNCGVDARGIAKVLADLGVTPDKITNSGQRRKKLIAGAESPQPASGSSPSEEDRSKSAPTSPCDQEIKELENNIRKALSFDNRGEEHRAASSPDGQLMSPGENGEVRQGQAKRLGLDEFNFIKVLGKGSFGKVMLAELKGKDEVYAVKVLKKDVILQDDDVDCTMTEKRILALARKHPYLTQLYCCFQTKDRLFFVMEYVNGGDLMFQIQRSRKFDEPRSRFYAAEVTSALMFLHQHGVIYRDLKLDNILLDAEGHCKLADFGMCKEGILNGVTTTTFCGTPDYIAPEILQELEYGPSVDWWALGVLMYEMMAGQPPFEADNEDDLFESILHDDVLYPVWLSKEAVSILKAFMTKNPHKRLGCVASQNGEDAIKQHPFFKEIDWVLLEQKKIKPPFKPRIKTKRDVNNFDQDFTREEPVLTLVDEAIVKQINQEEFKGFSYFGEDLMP

[4] = test system: ischemia-induced deficits; settings: postischemic/hypoxic treatment; cited from earlier work
[5] = test system: hippocampal CA1 area; test: Immunohistochemistry of synaptic markers (GAP-43, neurogranin, synaptophysin) in hippocampal CA1 area of Fragile X mice; assay type: in vivo
Method: (§1) Non-treated groups received the same volume of vehicle at the same frequency of administration as the treated groups.
Hippocampal slices at 400 μm thickness were further immersed in the fixative (4% paraformaldehyde in PBS) for 30 min at room temperature and then sectioned at 35 μm thickness by using a vibratome. Sections were then processed for immunohistochemistry as described in Hongpaisan et al., J Neurosci., 2004, 24:10878-10887. Tissue sections were incubated free-floating with primary antibodies against spinophilin (polyclonal IgG; 1:100; Upstate/Millipore), synaptophysin (monoclonal IgG; 1:2,000; Chemicon/Millipore), and/or HuC/D (monoclonal IgG; 1:100; Molecular Probes) at room temperature overnight. For a polyclonal antibody, tissue sections were incubated with Alexa Fluor 568 goat anti-rabbit IgG (1:200; Molecular Probes) for 3 h at room temperature. For monoclonal antibodies, sections were treated with a biotinylated secondary antibody (1:20; Vector Laboratories) for 3 h at room temperature and then with streptavidin conjugated with Alexa Fluor 488 (1:100; Molecular Probes) for 3 h at room temperature. Sections were mounted with […] mounting medium with DAPI to counterstain nuclei (Vector Laboratories) and imaged with the confocal microscope (512 pixels×512 pixels).
(§2) All data were quantified by using the ImageJ program. The appearance of spinophilin and synaptophysin profiles in a 63-μm×63-μm image taken from the superficial part of the stratum radiatum were analyzed with the photographic negative after background subtraction. The total number of spinophilin and synaptophysin granules were then counted by using ImageJ. Synaptophysin intensity was defined in the whole area of a 63-μm×63-μm image. HuC/D immunostaining was quantified by measuring fluorescence intensity in the proximal dendrite portion of each individual CA1 pyramidal neuron. The naive control data were set at 100%, and all other experiment data were defined as the percentage of their control.
(§3) The mice were then sacrificed and hippocampal sections were removed and treated as described in Example 2.

[6] = test system: synaptophysin; test: Synaptophysin immunohistochemistry in hippocampus of aged rats; assay type: in vivo
Method: Under anesthesia (choral hydrate; Sigma-Aldrich; 400 mg/kg body weight, i.p.), rats were perfused through the heart with PBS by gravity to wash out the blood and then lightly fixed with 150 ml of 4% paraformaldehyde in PBS at room temperature, instead of a cold fixative, because hypothermia can reduce the number of dendritic spines. Brains were removed and postfixed for 10 min. Thereafter, hippocampi were isolated from the right brain hemispheres, and dorsal hippocampi were sectioned with a vibratome at 400 μm for DiI staining and immunohistochemistry.
Hippocampal slices at 400 μm thickness were further immersed in the fixative (4% paraformaldehyde in PBS) for 30 min at room temperature and then sectioned at 35 μm thickness by using a vibratome. Sections were then processed for immunohistochemistry as described in Hongpaisan et al., J Neurosci., 2004, 24:10878-10887. […]
as §2, with “Synaptophysin intensity was defined in the whole area of a 63-μm×63-μm image.” left out, “The naive control data were set at 100%, and all other experiment data were defined as the percentage of their control.” left out

[7] = test system: hippocampal CA1 neurons; test: DiI staining and confocal microscopy of dendritic spines of hippocampal CA1 neurons in Fragile X mice; assay type: in vivo; settings: Fragile X transgenic mice
Method: as §1
The tips of glass electrodes, prepared as used for electrophysiology, were immersed in 5% (wt/vol) 1, 1′-dioctadecyl-3,3,3′,3′-tetramathyl-indocarbocyanineperchlorate (DiI, Molecular Probes/Invitrogen) in dichloromethane (Sigma-Aldrich) and air-dried at room temperature for 30 min. The tips of DiI-coated electrodes were inserted, broken, and left in the strata oriens of the CA1 area of hippocampal sections at […] thickness. After maintenance in PBS at 4° C. overnight to allow DiI to diffuse in the plasma membrane of the CA1 neurons, hippocampal sections were then resectioned to 35 μm thickness and mounted on glass slides, using PBS as the mounting medium. Dendritic spines stained with DiI in the strata radiatum were collected using a Zeiss Axiovert 200M microscope equipped with 510 confocal scanning system at 568 nm/>510 nm (excitation/emission). A stack of confocal images (taken every 0.4 μm) was collected to obtain all dendritic spines of an individual dendritic shaft. During analysis, a stack of images was retrieved with the ImageJ program (National Institutes of Health). Individual spines identified on one image were also verified on adjacent stacked images to approximate the three-dimensional structure of this spine. Those spines, which had head diameters more than three times larger than the diameter of their necks (FIGS. 1 d and e), were identified as mushroom spines. Approximately four to six stacked image sets were obtained from each animal. All image sets were pooled and coded; therefore, images were identified with unknown animal number and unknown treatment (double-blind protocol).
as §3

[8] = test system: mushroom-shaped dendritic spines; settings: rats; cited from earlier work
[9] = test system: Aβ(1-42); settings: transgenic mice with human AD genes; cited from earlier work
[10] = test system: FMR1 mice; test: Spatial water maze in Fragile X (FMR1) mice; assay type: in vivo; settings: 20 μg/m^2 tail i.v., 2 doses/week for 13 weeks, vs FMR1 with vehicle p<0.001
Text: Two types of mice (male, The Jackson Laboratories, ME, USA; 9-10 per group) were used in the study: FVB.129P2-Fmrl^tmlCgr/J (FMR1) and FVB.129P2-Pde6b^+ Tyr^c-ch/AntJ (as the control groups).
as §1
The first training of spatial water maze task began on the 10th day after the last dose. Mice were trained for 8 days (2 trials/day) to find a hidden platform, centered in one of the quadrants and submerged about 2 cm below the water surface. At the start of all trials, mice were placed individually in the water facing the maze wall, using different starting positions each trial, and allowed to swim until they found the platform, where they remained for 20 s, before being returned to their home cages. […] The swim path was recorded with a video-tracking system, which computed latency to the platform, swim distance, and percentage of time spent in the quadrants. After the training trials, a probe trial (a quadrant test or retention trial) was performed with the platform removed to assess memory retention for its location by the distance the mouse moved in the quadrants. The video-tracking system tracked the animal's movements in each quadrant during a period of one minute. […]

[11] = test system: PKC; settings: cited from earlier work
[12] = target: protein kinase C; settings: specifically the (−)-enantiomer; read-out: EC50 (potency); cited from earlier work
[13] = test system: murine leukemias and solid tumors; settings: cited from earlier work
[14] = test system: cyclin dependent kinase 2 (Cdk2); settings: at 5 ng/ml; cited from earlier work
[15] = test system: PKC; settings: K562 cells; cited from earlier work

## C/C=C(/C)C(=O)O[C@H]1C(C)=C[C@]23C(=O)[C@@H](C=C(CO)[C@@H](O)[C@]12O)[C@H]1[C@@H](C[C@H]3C)C1(C)C [Ingenol-3-angelate]
[1]
  antitumor activity: possesses antitumor activity

## CC1=CC[C@H](C)C(C)(C)[C@@H]1/C=C/C(C)=C/CC[C@@]1(CO)[C@H](CCCO)/C(=C(/C)C=O)CC[C@]1(C)O [Iripallidal]
[2]
  GI50 (concentration required to inhibit growth by 50%): micromolar to nanomolar range

## CCCCCC1CC1CC1CC1CCCCCCCC(=O)O (centres unmarked) [DCP-LA, 2-[(2-pentylcyclopropyl)methyl]cyclopropaneoctanoic acid]
[3]
  concentration of maximal effect on PKCε activation: 100 nM

## CCC/C=C/C=C/C(=O)O[C@H]1/C(=C/C(=O)OC)C[C@H]2C[C@H]([C@@H](C)O)OC(=O)C[C@H](O)C[C@@H]3C[C@H](OC(C)=O)C(C)(C)[C@](O)(C[C@@H]4C/C(=C/C(=O)OC)C[C@H](/C=C/C(C)(C)[C@]1(O)O2)O4)O3 [Bryostatin 1, bryostatin-1]
[4]
  ischemia-induced deficits in synaptogenesis, neurotrophic activity, and spatial learning and memory: effectively rescued
[5]; Fragile X transgenic mice
  postsynaptic membrane density, neurogranin; number of synapses (FIG. 8): can be restored
  presynaptic membrane density, GAP-43 (FIG. 7): restored presynaptic membrane density in Fragile X transgenic mice to wild type levels
  presynaptic vesicle concentration, synaptophysin fluorescence intensity (FIG. 9): significantly restored, and even enhanced
[5]; across experimental conditions
  number of presynaptic axonal boutons, synaptophysin grains (FIG. 9): No difference
[6]
  presence of synaptophysin (FIG. 3): increased
[7]
  filopodia number per 100 μm of dendritic shaft (FIG. 6): improved the transformation of filopodia to dendritic spines
  mushroom-shaped and total dendritic spines per 100 μm of dendritic shaft (FIG. 5): prevented the loss
  number and density of dendritic mushroom spines (FIG. 4): restored the number and density of dendritic mushroom spines to wild-type levels
[8]
  number of mushroom-shaped dendritic spines: memory-specific increase
[9]
  Aβ(1-42) levels in the brains: reduce
[10]
  learning performance in water maze (FIG. 1): significantly improved the learning performance

## CCCCCCCC(=O)O[C@H]1/C(=C/C(=O)OC)C[C@H]2C[C@H](CO)OC(=O)C[C@H](O)C[C@@H]3CCC[C@H](C[C@@H]4CCO[C@H](/C=C/C(C)(C)[C@]1(O)O2)O4)O3 [Analog 1]
[11]
  affinity for PKC (in words): high affinity for PKC

## CCCCCCCCc1ccc2c3c(c[nH]c13)C[C@@H](CO)NC(=O)[C@H](C(C)C)N2C [octylindolactam V, Octylindolactam V]
[12]
  EC50: 29 nM

## C=C(C)[C@]12C[C@@H](COC(=O)c3ccccc3)[C@@]34OC5(O[C@@H]1[C@@H]3C1O[C@]1(CO)[C@@H](O)[C@@]1(O)[C@H]4[C@@H](C(C)CCCCCC[C@@H]5O)C(C)[C@@H]1OC(=O)c1ccccc1)O2 (some centres unmarked) [Gnidimacrin]
[13]
  concentrations of potent antitumor activity: 0.1 to 1 nM
[14]
  inhibition of Cdk2: 100%
[15]
  concentration at which it acts as a PKC activator: ~3 nM
